Experimental findings from patent US20200237909A1, “METHODS OF TREATING OR PREVENTING BREAST CANCER METASTASES USING ANTIBODIES TO JAGGED1 AND CHEMOTHERAPEUTIC AGENTS” (The Trustees of Princeton University, priority 2017, published 2020) are described below.

Test [1] deals with Jagged1 expression in osteoblast cells. The test is described as follows: Jagged1/Alp immunostaining of hind limb bones after cisplatin. Format: in vivo, nude mice. The note with it: 48 hours after treatment. How it is done:
FIG. 5. Chemotherapy induces Jagged1 expression in osteoblast lineage cells. (A) Jagged1 mRNA expression in osteoblast MC3T3-E1-Clone #4 osteoblast cells and mesenchymal stem cells (MSC), HPMECL endothelial cells (endo), RAW264.7 pre-osteoclast cells, and SCP28 and SUM1315-M1B1 breast tumor cells 48 hr post-treatment with 25 nM paclitaxel or 10 μM cisplatin. (B) Athymic nude mice were i.v. injected with PBS or cisplatin and euthanized 48 hr later. Hind limb bones were collected for IF staining against Alp (green) and Jagged1 (red). Nuclei were counter-stained with DAPI (blue). (C-E) Athymic nude mice were treated with either PBS or cisplatin on Day 0. […] BLI imaging and quantification of BLI signal at Day 4. […]
To confirm this finding in vivo, female nude mice were treated with either PBS or cisplatin. […] In the PBS control group, Jagged1-positive cells were rarely detected, and mostly co-localizing with ALP-positive osteoblasts.
Hindlimb bones were excised from mice at the end point of each experiment, immediately after the last BLI time point. […] For quantitative analysis of lesion area, a 10× objective was used to focus on the tumor region of interest and images were acquired using the AxioCamICc3 camera set to an exposure of around 100 ms. Osteoclast number was assessed as multinucleated TRAP+ cells and reported as number/field. […]

A further test relates to SCP28. In words: Cleaved PARP and cleaved caspase-3 immunoblotting after cisplatin. The note with it: SCP28 single-cultured cells, 72 hours post-treatment. It counts as cell-based, human. How it is done:
FIG. 7. Pro-survival effect of osteoblast Jagged1 on cancer cells can be blocked by 15D11. (A) 3-D tumorsphere culture of MCF7, SCP28, and SUM1315-M1B1 cells, alone or in co-cultured with osteoblast cells, were treated with indicated concentrations of cisplatin or docetaxel. Two days after the chemotherapy, the surviving tumor spheres were counted under the fluorescent microscope. n=3. *p<0.05 by Student's t-test. (B) Cell culture of SCP28 cells alone or in co-culture with MC3T3-E1 pre-osteoblast cells were treated with PBS control or cisplatin. Protein samples were collected at 6 hr, 24 hr, and 72 hr later. Cleaved PARP and cleaved caspase-3 were determined by immunoblotting. # marks full length PARP and * marks cleaved PARP. […] Hind limb bones were fixed and cryo-sectioned for IF staining against CC3 for apoptotic cells and GFP for tumor cells (E), and CC3 positive apoptotic cells among GFP-positive tumor cells were quantified in F. Size bar: 25 μm. n=5. **p<0.01 by Student's t-test. […] Tumor cells in the bone were quantified based on BLI imaging at Day 1 and Day 4. […]
To mimic chemoresistance and tumor seeding effects by osteoblast lineage cells in vitro, an in vitro 3D tumor-stroma co-culture assay (Wang et al., 2015) was adapted. […] Cleaved PARP and cleaved caspase-3 (CC3) status were analyzed by immuno-blotting at different time points after cisplatin treatment. […]

As to `N.N.[Cl][Pt][Cl]` [cisplatin], in test [1], the “Jagged1 expression (immunostaining, Alp positive cells)” value was “much stronger Jagged1 expression”. Further, the “cleaved PARP and CC3” value with SCP28 is on record as “strong induction”.
